# Measurements: ChEMBL document CHEMBL1201862, “PubChem BioAssay data set” (2004)
#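 Briefly, cells in 96-well plates were exposed to five compound concentrations for 48 h, and endpoints were estimated by linear interpolation. At the GI50, growth is halved.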 The source made the active and inactive calls. No stated cut-off is given here; in the data, active = GI50 up to about 1.1 µM and inactive = higher.
# What was measured:
# Assay in all cases: NCI anticancer screen, dose series, 48 h
# [1] = system: 786-0
# [2] = system: A549
# [3] = system: ACHN
# [4] = system: BT-549
# [5] = system: CAKI-1
# [6] = system: CCRF-CEM
# [7] = system: COLO 205
# [8] = system: DU-145
# [9] = system: EKVX
# [10] = system: HCC 2998
# [11] = system: HCT-116
# [12] = system: HCT-15
# [13] = system: HOP-62
# [14] = system: HOP-92
# [15] = system: HT-29
# [16] = system: IGROV-1
# [17] = system: K562
# [18] = system: KM12
# [19] = system: LOX IMVI
# [20] = system: M14
# [21] = system: MCF7
# [22] = system: MDA-MB-231
# [23] = system: MDA-MB-435
# [24] = system: MDA-N
# [25] = system: MOLT-4
# [26] = system: Malme-3M
# [27] = system: NCI-H226
# [28] = system: NCI-H23
# [29] = system: NCI-H460
# [30] = system: NCI-H522
# [31] = system: NCI/ADR-RES
# [32] = system: OVCAR-3
# [33] = system: OVCAR-4
# [34] = system: OVCAR-5
# [35] = system: OVCAR-8
# [36] = system: PC-3
# [37] = system: RPMI-8226
# [38] = system: RXF 393
# [39] = system: SF-295
# [40] = system: SF-539
# [41] = system: SK-MEL-28
# [42] = system: SK-MEL-2
# [43] = system: SK-MEL-5
# [44] = system: SK-OV-3
# [45] = system: SN12C
# [46] = system: SNB-19
# [47] = system: SNB-75
# [48] = system: SR
# [49] = system: SW-620
# [50] = system: T47D
# [51] = system: TK-10
# [52] = system: U-251
# [53] = system: UACC-257
# [54] = system: UACC-62
# [55] = system: UO-31
# [56] = system: HL-60
# [57] = system: SF-268
structure (smiles),measurement,setting,value
COC(=O)[C@H](C)NC(=O)[C@H](CSC)N1C(=O)N[C@@H](C(C)C)C1=O,GI50,[1],> 100 µM (inactive)
same,GI50,[2],> 100 µM (inactive)
same,GI50,[3],> 100 µM (inactive)
same,GI50,[4],> 100 µM (inactive)
same,GI50,[5],> 100 µM (inactive)
same,GI50,[6],29.6 µM (inactive)
same,GI50,[7],> 100 µM (inactive)
same,GI50,[8],> 100 µM (inactive)
same,GI50,[9],> 100 µM (inactive)
same,GI50,[10],> 100 µM (inactive)
same,GI50,[11],> 100 µM (inactive)
same,GI50,[12],> 100 µM
same,GI50,[13],> 100 µM (inactive)
same,GI50,[14],> 100 µM (inactive)
same,GI50,[15],> 100 µM (inactive)
same,GI50,[16],> 100 µM (inactive)
same,GI50,[17],85.5 µM (inactive)
same,GI50,[18],> 100 µM (inactive)
same,GI50,[19],> 100 µM (inactive)
same,GI50,[20],> 100 µM (inactive)
same,GI50,[21],> 100 µM (inactive)
same,GI50,[22],> 100 µM (inactive)
same,GI50,[23],> 100 µM (inactive)
same,GI50,[24],> 100 µM (inactive)
same,GI50,[25],32.7 µM (inactive)
same,GI50,[26],49 µM (inactive)
same,GI50,[27],> 100 µM (inactive)
same,GI50,[28],> 100 µM (inactive)
same,GI50,[29],71.3 µM (inactive)
same,GI50,[30],> 100 µM (inactive)
same,GI50,[31],> 100 µM (inactive)
same,GI50,[32],> 100 µM (inactive)
same,GI50,[33],> 100 µM (inactive)
same,GI50,[34],> 100 µM (inactive)
same,GI50,[35],> 100 µM (inactive)
same,GI50,[36],> 100 µM (inactive)
same,GI50,[37],> 100 µM (inactive)
same,GI50,[38],> 100 µM (inactive)
same,GI50,[39],> 100 µM (inactive)
same,GI50,[40],> 100 µM (inactive)
same,GI50,[41],> 100 µM (inactive)
same,GI50,[42],> 100 µM (inactive)
same,GI50,[43],> 100 µM (inactive)
same,GI50,[44],> 100 µM (inactive)
same,GI50,[45],> 100 µM (inactive)
same,GI50,[46],> 100 µM (inactive)
same,GI50,[47],12.5 µM (inactive)
same,GI50,[48],> 100 µM (inactive)
same,GI50,[49],> 100 µM (inactive)
same,GI50,[50],> 100 µM (inactive)
same,GI50,[51],> 100 µM (inactive)
same,GI50,[52],> 100 µM (inactive)
same,GI50,[53],> 100 µM (inactive)
same,GI50,[54],> 100 µM (inactive)
same,GI50,[55],> 100 µM (inactive)
COc1ccc(Nc2ccc3ccccc3c2-c2c(O)ccc3ccccc23)cc1,GI50,[1],17.1 µM (inactive)
same,GI50,[3],16.2 µM (inactive)
same,GI50,[4],24.4 µM (inactive)
same,GI50,[5],16.1 µM (inactive)
same,GI50,[6],18.3 µM (inactive)
same,GI50,[7],24 µM (inactive)
same,GI50,[8],17.5 µM (inactive)
same,GI50,[9],14.9 µM (inactive)
same,GI50,[10],15.7 µM (inactive)
same,GI50,[11],17.5 µM (inactive)
same,GI50,[12],17.6 µM
same,GI50,[56],31.1 µM (inactive)
same,GI50,[13],12.6 µM (inactive)
same,GI50,[14],4.16 µM (inactive)
same,GI50,[15],16.1 µM (inactive)
same,GI50,[16],11 µM (inactive)
same,GI50,[17],7.23 µM (inactive)
same,GI50,[18],16.1 µM (inactive)
same,GI50,[19],17.9 µM (inactive)
same,GI50,[21],11.8 µM (inactive)
same,GI50,[22],24.7 µM (inactive)
same,GI50,[23],3.99 µM (inactive)
same,GI50,[24],12.6 µM (inactive)
same,GI50,[25],10.1 µM (inactive)
same,GI50,[27],16.6 µM (inactive)
same,GI50,[28],15.2 µM (inactive)
same,GI50,[29],16.4 µM (inactive)
same,GI50,[30],18.2 µM (inactive)
same,GI50,[31],15.4 µM (inactive)
same,GI50,[32],14.6 µM (inactive)
same,GI50,[33],19 µM (inactive)
same,GI50,[34],16.9 µM (inactive)
same,GI50,[35],18.1 µM (inactive)
same,GI50,[36],15.8 µM (inactive)
same,GI50,[37],9.68 µM (inactive)
same,GI50,[38],20.2 µM (inactive)
same,GI50,[57],17.8 µM (inactive)
same,GI50,[39],18.4 µM (inactive)
same,GI50,[40],25.7 µM (inactive)
same,GI50,[41],13.1 µM (inactive)
same,GI50,[42],14.4 µM (inactive)
same,GI50,[43],17 µM (inactive)
same,GI50,[45],15.5 µM (inactive)
same,GI50,[46],17.3 µM (inactive)
same,GI50,[47],19.9 µM (inactive)
same,GI50,[48],4.93 µM (inactive)
same,GI50,[49],13.9 µM (inactive)
same,GI50,[50],15.6 µM (inactive)
same,GI50,[51],27.7 µM (inactive)
same,GI50,[52],22.6 µM (inactive)
same,GI50,[53],22.1 µM (inactive)
same,GI50,[54],29.9 µM (inactive)
same,GI50,[55],13.6 µM (inactive)
